Like-named read-outs stand apart in the source and are kept apart here.
Assays:
[1] = system: PC-3 prostate cancer cells; assay: Growth inhibition by MTT staining, PC-3; assay type: cell-based, Human; conditions: MTT
Protocol: (§1) Growth inhibitory effects of PCNA-I1 and PCNA-I2 were assessed in human cancer cell lines, mouse cancer cell lines, immortalized mouse cell lines, and human primary cell lines. Specifically, growth inhibitory effects of PCNA-I1 and PCNA-I2 were assessed using MTT staining in the following cells lines: 1) human cancer cell lines including LNCaP (androgen receptor […]), 22Rv1, DU-145, LAPC-4, and PC-3 (androgen receptor […]) prostate cancer cells; MCF-7 and T47D breast cancer cells; A375 and MDA-MB435 melanoma cells; 2) mouse cancer cell lines including TRAMP-C2RE3 prostate cancer cells, B16 and K1735 melanoma cells, UV2237 fibrosarcoma cells, and CT-26 colon cancer cells; 3) immortalized mouse lung cell lines and mouse endothelial cell lines; and 4) primary human cell lines including umbilical endothelial cells (HUVEC, PromoCell, Heidelberg, Germany), primary bone marrow mesenchymal stem cells (HuMSC, PromoCell), primary human mammary epithelial cells (HuBrEC, Lonza, Walkersville, Md.), primary human prostate epithelial cells (HuPrEC, Lonza), and primary mouse spleen lymphocytes (isolated in this laboratory), and primary mouse bone marrow stromal cells (isolated in this laboratory). PCNA-I1 and PCNA-I2 were either provided by the University of Cincinnati Drug Discovery Center (UC-DDC, Cincinnati, Ohio) or were purchased from Chembridge Co (San Diego, Calif.), ChemDiv (San Diego, Calif.), and/or Sigma-Aldrich (St Louis, Mo.).
(§2) Growth inhibitory effects of the compounds were assessed by MTT staining as described previously by Dong et al. in In Vitro Model for Intrinsic Drug Resistance: Effects of Protein Kinase C Activators on the Chemosensitivity of Cultured Human Colon Cancer Cells; Mol. Pharmacol. 1991; 39: 563-9. Briefly, cells were cultured and treated in their respective media. Cells were plated into 96-well plates at 1000 to 5000 cells/well. After an overnight incubation, the cells were treated for four days with various concentrations (up to 10 μM) of PCNA-I1 or PCNA-I2. The live cells were stained with MTT and cells in exponential growth phase were harvested by a one to three minute treatment with a 0.25% trypsin-0.02% EDTA solution. Flasks were tapped to detach the cells, RPMI 1640-10% FBS was added, and the cell suspensions were gently agitated to produce single-cell suspensions. The cell suspensions were washed and resuspended in medium with supplements specified for different cells. Only suspensions of single cells with a viability exceeding 95% (ascertained by trypan blue exclusion) were used.
(§3) IC50 values were derived from growth inhibition curves. Data for tumor cells are a mean of five to seven experiments. Data for primary cells are a mean of three experiments. […] Inhibition of cell growth was calculated using the formula: growth inhibition (%)=(1−A570 of treated/A570 of control)×100. IC50 (the concentration that inhibited cell growth by 50%) values were also determined. For evaluation of lymphocyte growth in suspension, an Alamar blue assay was performed, wherein freshly prepared mouse spleen lymphocytes were stimulated for 72 H with 2 ug/mL concanavalin A (Sigma Chemicals, St. Louis, […].). During the last 24 H, 20 μl/well of Alamar blue (Invitrogen, Carlsbad, Calif.) was added. The fluorescence intensity was measured at 530/580 (excitation/emission) in the FLUOstar Omega microplate reader (BMG LABTECH, Cary, N.C.).
(§4) Growth inhibitory effects of PCNA-I3, PCNA-I4, PCNA-I6, PCNA-I7, PCNA-I8, PCNA-I9 and PCNA-I10 were assessed in human prostate cancer cell lines. Specifically, growth inhibitory effects of PCNA-I3, PCNA-I4, PCNA-I6, PCNA-I7, PCNA-I8, PCNA-I9 and PCNA-I10 were assessed using MTT staining in LNCaP and PC-3 cells. […]

[2] = system: LNCaP prostate cancer cells; assay: Growth inhibition by MTT staining, LNCaP; assay type: cell-based, Human; conditions: 96 h
Protocol: as §1, §2, §3, §4

[3] = system: primary mouse spleen lymphocytes; assay: Alamar blue assay of lymphocyte growth; assay type: cell-based; conditions: 2 μg/mL, 72 H; FIG. 2(A)
Protocol: as §3
The effects of PCNA-I1 on growth of tumor cells versus primary cells was also investigated. Specifically, the effects of PCNA-1I on the growth of primary cells was investigated using primary culture of mouse lymphocytes. An Alamar blue assay was performed with PC-3 cells as a positive control. Freshly prepared mouse spleen lymphocytes were stimulated for 72 H with 2 μg/mL of concanavalin A. During the last 24 H, 20 μL/well of alamar blue was added. The fluorescence intensity was measured at 530/580 (excitation/emission).

LNCaP cells [4] = assay: DNA damage, apoptosis and cell cycle proteins by immunoblot, LNCaP; assay type: cell-based, Human
Protocol: Fluorescence-activated cell sorting (FACS) analysis was performed on both PC-3 cells and LNCaP cells using PCNA-I1. Specifically, cells were treated with 1 or 10 μM PCNA-I1 and sampled for the flow cytometry analysis at 24 H, 48 H, and 72 H. Expression of DNA damage and apoptosis-related proteins in PC-3 cells and LNCaP cells was also determined. Cisplatin, a well-known drug that induces DNA damage and apoptosis, was included in the experiment. LNCaP cells were treated for 6 H, 12 H, or 18 H with 10 μM PCNA-I1, 10 μM cisplatin, or both.
To further explore the differential effects of PCNA-I1 on LNCaP and PC-3 cells, the effects of PCNA-I1 and cisplatin on expression of cell cycle- and apoptosis-related proteins in the two cell lines were compared. LNCaP cells and PC-3 cells were treated with 1 μM PCNA-I1 and/or 5 μM cisplatin for 12 H, 18 H, or 24 H and cell lysates were sampled for immunoblotting.

LNCaP cells [5] = assay: MTT assay, PCNA-I1 and cisplatin alone or combined, LNCaP; assay type: cell-based, Human
Protocol: (§5) LNCaP or PC-3 cells were treated with a variety of concentrations of PCNA-I1 (0.1-10 μM) or cisplatin (0.1-10 μM) alone, or with a variety of concentrations of a combination of PCNA-I1 (0.1-10 μM) and cisplatin (0.1-10 μM) for four days. MTT assays were performed and IC50 values for PCNA-I1 and cisplatin were determined.

PC-3 cells = assay: MTT assay, PCNA-I1 and cisplatin alone or combined, PC-3; assay type: cell-based, Human
Protocol: as §5

[6] = system: MCF-7 breast cancer cells; assay: Growth inhibition by MTT staining, MCF-7; assay type: cell-based; conditions: MCF7, 96 h, Human, tumor cells, treated four days
Protocol: as §1, with “PCNA-I1 and PCNA-I2 were either provided by the University of Cincinnati Drug Discovery Center (UC-DDC, Cincinnati, Ohio) or were purchased from Chembridge Co (San Diego, Calif.), ChemDiv (San Diego, Calif.), and/or Sigma-Aldrich (St Louis, Mo.).” left out
(§6) IC50 values were derived from growth inhibition curves. […] Inhibition of cell growth was calculated using the formula: growth inhibition (%)=(1−A570 of treated/A570 of control)×100. […]

[7] = system: DU145 prostate cancer cells; assay: Growth inhibition by MTT staining, DU145; assay type: cell-based; conditions: DU-145, 96 h, Human tumor cells, treated four days
Protocol: as §1, with “PCNA-I1 and PCNA-I2 were either provided by the University of Cincinnati Drug Discovery Center (UC-DDC, Cincinnati, Ohio) or were purchased from Chembridge Co (San Diego, Calif.), ChemDiv (San Diego, Calif.), and/or Sigma-Aldrich (St Louis, Mo.).” left out
as §6

[8] = system: LAPC-4 prostate cancer cells; assay: Growth inhibition by MTT staining, LAPC-4; assay type: cell-based; conditions: LAPC4, 96 h, Human tumor cells, treated four days
Protocol: as §1, with “PCNA-I1 and PCNA-I2 were either provided by the University of Cincinnati Drug Discovery Center (UC-DDC, Cincinnati, Ohio) or were purchased from Chembridge Co (San Diego, Calif.), ChemDiv (San Diego, Calif.), and/or Sigma-Aldrich (St Louis, Mo.).” left out
as §6

A375 melanoma cells = assay: Growth inhibition by MTT staining, A375; assay type: cell-based; conditions: A-375, 96 h, Human, treated four days
Protocol: as §1, with “PCNA-I1 and PCNA-I2 were either provided by the University of Cincinnati Drug Discovery Center (UC-DDC, Cincinnati, Ohio) or were purchased from Chembridge Co (San Diego, Calif.), ChemDiv (San Diego, Calif.), and/or Sigma-Aldrich (St Louis, Mo.).” left out
as §6

Tumor Cells = assay: Growth inhibition, mean over tumor cell lines; assay type: cell-based; conditions: most cell lines examined
Protocol: as §1, with “PCNA-I1 and PCNA-I2 were either provided by the University of Cincinnati Drug Discovery Center (UC-DDC, Cincinnati, Ohio) or were purchased from Chembridge Co (San Diego, Calif.), ChemDiv (San Diego, Calif.), and/or Sigma-Aldrich (St Louis, Mo.).” left out
as §6

PCNA = target: T1, PCNA (Homo sapiens, UniProt P12004); assay: PCNA trimer formation assay, PC-3 cell lysate; assay type: biochemical; conditions: PC-3 lysate, 1 μM or 10 μM, 3 H, SDS-PAGE; FIG. 9(A)
T1 construct: endogenous PCNA was knocked down with transfection of PCNA-specific siRNA; endogenous in cells; host or cells: PC-3
T1 sequence (P12004 whole entry): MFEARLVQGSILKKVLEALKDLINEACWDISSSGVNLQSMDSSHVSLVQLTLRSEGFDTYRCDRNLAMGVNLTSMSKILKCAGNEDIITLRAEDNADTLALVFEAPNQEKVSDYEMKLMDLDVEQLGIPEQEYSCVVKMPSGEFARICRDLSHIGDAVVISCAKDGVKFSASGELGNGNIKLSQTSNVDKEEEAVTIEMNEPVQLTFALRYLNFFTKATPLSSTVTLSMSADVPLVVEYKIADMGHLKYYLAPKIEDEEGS
Protocol: The effect of PCNA-I1, PCNA-I2, PCNA-I3, PCNA-I4, PCNA-I6, PCNA-I7, PCNA-I8, PCNA-I9, and PCNA-I10 on PCNA trimer formation was investigated by SDS-PAGE and immunoblotting. Specifically, a trimer formation assay was performed on both PC-3 cell lysates and purified recombinant protein. The trimer formation assay was performed on purified recombinant protein to determine whether the effects of PCNA compounds on the stable trimer formation required the participation of other cellular proteins.
Purified His-PCNA (0.1 μg/reaction) and PC-3 cell lysates (50 μg/reaction) were incubated for 3 H at room temperature in a reaction buffer (40 mM Tris-HCl, pH 7.5, 0.2 mg/mL BSA, 10 mM MgCl2, and 10% glycerol) in the absence or presence of DMSO (0.1% vehicle control) or PCNA-I1, PCNA-I2, PCNA-I3, PCNA-I4, PCNA-I6, PCNA-I7, PCNA-I8, PCNA-I9, or PCNA-I10 (1 μM or 10 μM). The reaction was stopped by addition of the SDS-PAGE sample buffer without a reducing agent. The samples were resolved in SDS-PAGE without boiling and analyzed by immunoblotting using PCNA antibody.

GFP-PCNA = GFP-PCNA chromatin association, fluorescence microscopy; assay type: cell-based, Human; conditions: PC-3 transfected with pGFP-PCNA; 4 H, 0.5 μM PCNA-I1 or 2 μM PCNA-I2; FIG. 11
Protocol: Additionally, PC-3 cells were transfected for 24 H with pGFP-PCNA. The cells were then treated for 4 H with 0.5 μM of PCNA-I1 or 2 μM of PCNA-I2. The intact GFP-PCNA expressing cells were observed under a fluorescent microscope and recorded. After treatment with a buffer with 0.5% NP-40 buffer B, the cells were examined and recorded.

[9] = Homo sapiens, PC-3, 96 h, Table III, four days, mean of two experiments, read-out: IC50 Values of PCNA Inhibitors, PC-3 Cells
[10] = Homo sapiens, Table III, four days, mean of two experiments, read-out: IC50 Values of PCNA Inhibitors, LNCaP Cells

## O=C(N/N=C/c1ccc2ccccc2c1O)c1sc2ccccc2c1O [PCNA-I7]
[1]; [9]
  IC50: 3600 nM
[2]; [10]
  IC50: 2200 nM

## O=C(NNC(=O)c1c(O)c2ccccc2[nH]c1=O)c1ccccc1[N+](=O)[O-] [PCNA-I10]
[1]; [9]
  IC50: > 10000 nM
[2]; [10]
  IC50: 2200 nM

## C/C(=N\NC(=O)c1cccc(F)c1)c1ccc2ccccc2c1O [PCNA-I8]
[1]; [9]
  IC50: 1000 nM
[2]; [10]
  IC50: 680 nM

## Cc1ccc2[nH]c(=O)c(/C=N/NC(=O)c3ccccc3)c(O)c2c1 [PCNA-I6]
[1]; [9]
  IC50: > 10000 nM
[2]; [10]
  IC50: > 10000 nM

## C/C(=N\NC(=O)c1ccccc1O)c1ccc2ccccc2c1O [PCNA-I9]
[1]; [9]
  IC50: 2200 nM
[2]; [10]
  IC50: 710 nM

## concanavalin A [reference compound]
[3]
  Stimulation of lymphocyte growth: about 3.5 fold

## N.N.[Cl][Pt][Cl] [cisplatin, reference compound]
LNCaP cells [4]; LNCaP and PC-3, 1 μM PCNA-I1 and/or 5 μM cisplatin, 12-24 H
  Expression of retinoblastoma (Rb) and cyclin D1: moderately downregulated expression of cell cycle-regulating proteins
LNCaP cells [4]; LNCaP, 10 μM
  Phosphorylation of p53, single agent: induced
LNCaP cells [4]; LNCaP, 10 μM PCNA-I1 and/or 10 μM cisplatin
  Expression of p21 protein: enhanced expression of p21 protein at 6 H and 12 H
LNCaP cells [4]; LNCaP, 10 μM alone
  PARP cleavage, single agent: induced PARP cleavage
LNCaP cells [4]; LNCaP, 10 μM alone, 6-18 H, FIG. 17(A)
  DNA double strand break (γH2AX induction), single agent: induced moderate double strand break (DSB) of DNA
LNCaP cells [5]; MTT, four days, single agent, read-out: IC50 doses for cell growth inhibition, LNCaP, agent alone
  IC50: 650 nM
LNCaP cells [5]; combined with 0.067 μM PCNA-I1, read-out: Cisplatin concentration giving 50% inhibition in combination, LNCaP
  IC50: 300 nM
PC-3 cells; MTT, four days, single agent, read-out: IC50 doses for cell growth inhibition, PC-3, agent alone
  IC50: 450 nM
PC-3 cells; combined with 0.08 μM PCNA-I1, read-out: Cisplatin concentration giving 50% inhibition in combination, PC-3
  IC50: 300 nM

## O=C(N/N=C/c1ccc2ccccc2c1O)c1cccc(Cl)c1 [PCNA-I3]
[1]; [9]
  IC50: 440 nM
[2]; [10]
  IC50: 260 nM

## O=C(N/N=C/c1c(O)ccc2ccccc12)c1ccn[nH]1 [PCNA-I2]
[6]
  IC50: 1010 nM
[1]; 96 h, Table II, Human tumor cells, treated four days, mean of five to seven experiments, read-out: IC50 Values, PC-3
  IC50: 970 nM
[7]
  IC50: 1190 nM
[8]
  IC50: 1790 nM
[2]; Table II, Human tumor cells, treated four days, mean of five to seven experiments, read-out: IC50 Values, LNCaP
  IC50: 560 nM
A375 melanoma cells
  IC50: 3750 nM
Tumor Cells
  Potency relative to PCNA-I1: about three to five times less potent than PCNA-I1
PCNA
  Portion of PCNA in the trimer form: significantly elevated
GFP-PCNA
  Level of chromatin-associated GFP-PCNA: reduced the level of chromatin-associated GFP-PCNA
  Total intensity of GFP-PCNA: did not significantly alter the total intensity of GFP-PCNA

## O=C(NNS(=O)(=O)c1ccc(Br)cc1)c1c(O)c2ccccc2[nH]c1=O [PCNA-I4]
[1]; [9]
  IC50: 3000 nM
[2]; [10]
  IC50: 680 nM

— patent US9895363B2, “Methods for modulating function of proliferating cell nuclear antigen (PCNA) and treating cancer with PCNA-targeting compounds” (University of Cincinnati, priority 2010, dated 2018)
